Source: paper PMC10313671, “Accelerating the prediction and discovery of peptide hydrogels with human-in-the-loop” (Nature Communications, 2023)
Where a SMILES comes first, the peptide text is derived from it.

How the values were obtained:
[1] = Transmission electron microscope (negative staining) of peptide assemblies; details: for Morphology: TEM, negative staining with uranyl acetate, 120 kV
Experimental: We used the negative staining technique to observe the morphologies formed by peptides. A micropipette was used to load 10 μL of sample solution to a carbon-coated copper grid, and we used a piece of filter paper to remove the excess solution. After rinsing the grid with the deionized water, we used uranyl acetate to stain the sample for 1 minute and then rinsed the grid with deionized water again.

[2] = Peptide hydrogel formation, vial-inverting method; format: physicochemical; parameters: key to EXP / GELATION: 0: no hydrogel; 1: hydrogel; details: for State: ultrasonication, standing 48 h; for Concentration: concentration at which the state was recorded: lowest of 30, 60, 90, 120 mM that gave a gel, 120 mM for non-gelating peptides; for GELATION: 1 = hydrogel, 0 = no hydrogel
Experimental: After validating the efficiency of APHC in predicting tetrapeptide hydrogels, we detailed the phase state of 165 synthesized tetrapeptides and the observed assembly behavior in an aqueous solution.
This work defines hydrogel formation as a self-supporting, non-flowing mixture of water and hydrogelator by the vial-inverting method. All purified tetrapeptides were dissolved in ultrapure water (to form a 30 mM solution initially), followed by the stepwise addition of 1 N NaOH solution to adjust the overall aqueous pH to 6.5–8.5. Meanwhile, a short-term ultrasonication treatment was applied after each pH adjustment to facilitate peptide solubilization and speed up peptide self-assembly. […] The mixture was allowed to stand in for another 48 h for complete hydrogelation. Upon the absence of gelation phenomenon during the aforementioned loops, we increased the peptide concentration (60 mM, 90 mM, and 120 mM were selected) and re-started such gelation operation loop to explore their gelation feasibility.

[3] = 30 mM peptide in ultrapure water, pH adjusted to 6.5-8.5 with 1 N NaOH, vial-inverting method, concentration raised 30/60/90/120 mM until gelation
[4] = peptide concentration 30 mM, vial-inverting method
[5] = 120 mM peptide (highest tested) in ultrapure water, pH 6.5-8.5 (1 N NaOH), vial-inverting method, precipitate, sol, suspension = no gel
[6] = peptide concentration 120 mM, vial-inverting method
[7] = 60 mM peptide in ultrapure water, pH 6.5-8.5 (1 N NaOH), vial-inverting method, no gel at 30 mM
[8] = peptide concentration 60 mM, vial-inverting method

Row | Compound | Morphology ([1]; line of the table gives 30 mM) | State [2, 3] | Concentration [2] [µM] | GELATION [2, 4] | Morphology ([1]; line of the table gives 120 mM) | State [2, 5] | GELATION [2, 6] | also measured
1 | CC[C@H](C)[C@H](NC(=O)[C@@H]1CCCN1)C(=O)N[C@@H](Cc1ccccc1)C(=O)N[C@@H](Cc1ccc(O)cc1)C(=O)O [PIFY] (H-PIFY-OH) | sphere | gel | 30000 | 1 | – | – | – | –
2 | CC(C)C[C@H](N)C(=O)NCC(=O)N[C@H](C(=O)N[C@@H](Cc1ccccc1)C(=O)O)C(C)C [LGVF] (H-LGVF-OH) | – | – | 120000 | – | fibre | sol | 0 | –
3 | CC(C)[C@H](NC(=O)CN)C(=O)N[C@@H](Cc1ccccc1)C(=O)N[C@@H](Cc1ccc(O)cc1)C(=O)O [GVFY] (H-GVFY-OH) | fibre | gel | 30000 | 1 | – | – | – | –
4 | CSCC[C@H](NC(=O)[C@@H](N)CCSC)C(=O)N[C@@H](Cc1ccc(O)cc1)C(=O)N[C@@H](Cc1ccc(O)cc1)C(=O)O [MMYY] (H-MMYY-OH) | – | – | 120000 | – | particle | suspension | 0 | –
5 | CC(C)C[C@H](NC(=O)[C@H](CC(C)C)NC(=O)[C@H](CC(C)C)NC(=O)[C@@H](N)CC(C)C)C(=O)O [LLLL] (H-LLLL-OH) | needle | gel | 30000 | 1 | – | – | – | –
6 | CC(C)C[C@H](N)C(=O)N[C@@H](Cc1c[nH]c2ccccc12)C(=O)N[C@@H](Cc1ccccc1)C(=O)N[C@@H](Cc1c[nH]c2ccccc12)C(=O)O [LWFW] (H-LWFW-OH) | sphere | gel | 30000 | 1 | – | – | – | CONCENTRATION (at which the hydrogel formed) ([2]; hydrogel-forming peptides only, vial-inverting method): 30000 µM
7 | CC[C@H](C)[C@H](N)C(=O)N[C@H](C(=O)N[C@H](C(=O)N[C@@H](Cc1ccc(O)cc1)C(=O)O)[C@@H](C)CC)C(C)C [IVIY] (H-IVIY-OH) | – | – | 60000 | – | – | – | – | Morphology ([1]; line of the table gives 60 mM): aggregates; State [2, 7]: gel; GELATION [2, 8]: 1
8 | N[C@@H](Cc1c[nH]c2ccccc12)C(=O)N[C@@H](Cc1ccc(O)cc1)C(=O)N[C@@H](Cc1ccccc1)C(=O)N[C@@H](Cc1ccccc1)C(=O)O [WYFF] (H-WYFF-OH) | fibre | gel | 30000 | 1 | – | – | – | –
9 | CSCC[C@H](N)C(=O)N[C@H](C(=O)N[C@@H](Cc1ccccc1)C(=O)N1CCC[C@H]1C(=O)O)C(C)C [MVFP] (H-MVFP-OH) | – | – | 60000 | – | – | – | – | Morphology ([1]; line of the table gives 60 mM): fibre; State [2, 7]: gel; GELATION [2, 8]: 1
10 | N[C@@H](CC(=O)O)C(=O)N[C@@H](CC(=O)O)C(=O)N[C@@H](CC(=O)O)C(=O)N[C@@H](CC(=O)O)C(=O)O [DDDD] (H-DDDD-OH) | – | – | 120000 | – | sphere | sol | 0 | –
11 | NCCCC[C@H](NC(=O)[C@@H](N)Cc1c[nH]c2ccccc12)C(=O)N[C@@H](Cc1ccccc1)C(=O)N[C@@H](Cc1ccccc1)C(=O)O [WKFF] (H-WKFF-OH) | – | – | 60000 | – | – | – | – | morphology by TEM (in words) ([1]; aqueous solution or hydrogel, negative staining): entangled nanofibers; State [2, 7]: gel; GELATION [2, 8]: 1; hydrogel formation (in words) ([2]; vial-inverting method, representative hydrogels pH between 7.0 to 7.5): hydrogels
12 | CC[C@H](C)[C@H](NC(=O)[C@@H](NC(=O)[C@@H](NC(=O)[C@@H](N)CC(C)C)C(C)C)[C@@H](C)CC)C(=O)O [LVII] (H-LVII-OH) | sheet | gel | 30000 | 1 | – | – | – | –
13 | O=C(O)[C@@H]1CCCN1C(=O)[C@@H]1CCCN1C(=O)[C@@H]1CCCN1C(=O)[C@@H]1CCCN1 [PPPP] (H-PPPP-OH) | – | – | 120000 | – | particle | suspension | 0 | –
14 | C[C@H](NC(=O)[C@@H](N)Cc1c[nH]c2ccccc12)C(=O)N[C@@H](Cc1ccc(O)cc1)C(=O)N[C@@H](Cc1ccccc1)C(=O)O [WAYF] (H-WAYF-OH) | fibre | gel | 30000 | 1 | – | – | – | –
15 | CC(C)C[C@H](NC(=O)[C@H](C)NC(=O)[C@@H](N)CC(C)C)C(=O)N[C@@H](CCCNC(=N)N)C(=O)O [LALR] (H-LALR-OH) | – | – | 120000 | – | aggregates | suspension | 0 | –
